These results are taken from ChEMBL document CHEMBL1201862, “PubChem BioAssay data set” (2004).

Some test systems named below: ACHN; CAKI-1; COLO 205; HCT-15; HL-60; IGROV-1; LOX IMVI; NCI-H460; NCI-H522; OVCAR-8; SF-539; SK-MEL-28; SK-OV-3; SN12C; TK-10; NCI-H226.
What all share (assay): inhibition of tumour cell growth, NCI panel, 48 h

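Results reflect a 48-hour exposure of cells in 96-well plates to compound at five concentrations. GI50 marks 50% less growth.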 The source made the active and inactive calls. No stated cut-off is given here; in the data, active = GI50 up to about 1.1 µM and inactive = higher.

Consider `O/N=C1\C(=C\c2ccc3c(c2)OCCO3)CCCC1C(NO)c1ccc2c(c1)OCCO2` (stereo not given), for which the GI50 with ACHN is 34.5 µM (inactive); in the experiment on CAKI-1, 32.4 µM (inactive); in the experiment with COLO 205, 32.4 µM (inactive); in the experiment on HCT-15 it was 22.5 µM; in the experiment with HL-60, 14.7 µM (inactive); in the experiment on IGROV-1, 36.1 µM (inactive). Moreover, the GI50 is 15.7 µM (inactive) in the experiment on LOX IMVI; 20.5 µM (inactive) with NCI-H460; 13.8 µM (inactive) in the experiment on NCI-H522; 31.4 µM (inactive) in the experiment on OVCAR-8; 13.4 µM (inactive) in the experiment with SF-539; 18.5 µM (inactive) with SK-MEL-28. Moreover, the GI50 with SK-OV-3 was 49.9 µM (inactive); in the experiment with SN12C, 14 µM (inactive); in the experiment on TK-10, 24.2 µM (inactive).
For the compound `COc1nc2c(OC)cccc2c(OC)c1C=O`, the GI50 in the experiment with ACHN is > 100 µM (inactive); in the experiment on COLO 205, > 100 µM (inactive); in the experiment with HCT-15, over 100 µM; in the experiment on HL-60, > 100 µM (inactive); in the experiment with IGROV-1 it was > 100 µM (inactive); with LOX IMVI it was > 100 µM (inactive). For the same compound, the GI50 in the experiment on NCI-H226, with NCI-H460, with NCI-H522, with OVCAR-8, in the experiment on SF-539 and with SK-MEL-28 was > 100 µM (inactive) in each case. For the same compound, the GI50 in the experiment with SK-OV-3, with SN12C and in the experiment on TK-10 was > 100 µM (inactive) throughout.
Take `CC(C)(C)CC(C)(C)c1cc2c(O)c(c1)Cc1cc(C(C)(C)CC(C)(C)C)cc(c1O)Cc1cc(C(C)(C)CC(C)(C)C)cc(c1O)Cc1cc(C(C)(C)CC(C)(C)C)cc(c1O)Cc1cc(C(C)(C)CC(C)(C)C)cc(c1O)C2`: the GI50 was > 100 µM (inactive) in the experiment on ACHN; > 100 µM (inactive) in the experiment with COLO 205; over 100 µM in the experiment with HCT-15; > 100 µM (inactive) in the experiment on HL-60; > 100 µM (inactive) in the experiment on IGROV-1; > 100 µM (inactive) in the experiment on NCI-H460. Moreover, the GI50 with NCI-H522, in the experiment on OVCAR-8, in the experiment on SF-539, in the experiment on SK-MEL-28, in the experiment with SN12C and with TK-10 was > 100 µM (inactive) throughout.
Take `CN(C)C=C1C(Cl)=C(C=O)CC(C=O)=C1Cl`: the GI50 was 12.9 µM (inactive) with ACHN; 11.3 µM (inactive) in the experiment on CAKI-1; 15.6 µM (inactive) in the experiment with COLO 205; 3.42 µM in the experiment on HCT-15; 1.77 µM (inactive) with HL-60; 16.1 µM (inactive) in the experiment on IGROV-1. Besides, the GI50 with LOX IMVI is 2.19 µM (inactive); in the experiment on NCI-H460, 20.7 µM (inactive); in the experiment on NCI-H522 it was 1.86 µM (inactive); with OVCAR-8, 3.13 µM (inactive); in the experiment with SF-539, 14.8 µM (inactive); with SK-MEL-28 it was 6.59 µM (inactive). In addition, the results for the GI50 in the experiment on SK-OV-3, in the experiment with SN12C and with TK-10 were 29.4 µM (inactive), > 100 µM (inactive) and 16.7 µM (inactive), respectively.
On to `COC(=O)C12C3C=CC(O3)C1C1C=CC2O1` (stereo not given), for which the GI50 was > 100 µM (inactive) in the experiment on ACHN; > 100 µM (inactive) with COLO 205; over 100 µM with HCT-15; > 100 µM (inactive) in the experiment with HL-60; > 100 µM (inactive) with IGROV-1; > 100 µM (inactive) with NCI-H226. Further, the GI50 with NCI-H460, with NCI-H522, with OVCAR-8, with SF-539, in the experiment on SK-MEL-28 and with SK-OV-3 was > 100 µM (inactive) each time. The GI50 in the experiment with SN12C and in the experiment with TK-10 was > 100 µM (inactive) throughout.
In the case of `CC(CC(=O)Nc1ccc(NC(=O)CC(C)/N=N\C(N)=S)cc1)/N=N\C(N)=S` (stereo not given), the GI50 with ACHN was > 100 µM (inactive); with CAKI-1, > 100 µM (inactive); in the experiment on COLO 205 it was > 100 µM (inactive); in the experiment on HCT-15, 85.9 µM; in the experiment with HL-60 it was > 100 µM (inactive); in the experiment with IGROV-1 it was > 100 µM (inactive). Also, the GI50 with LOX IMVI was 57.5 µM (inactive); in the experiment with NCI-H226, > 100 µM (inactive); with NCI-H460, > 100 µM (inactive); with OVCAR-8 it was > 100 µM (inactive); in the experiment on SF-539, > 100 µM (inactive); in the experiment with SK-MEL-28 it was > 100 µM (inactive). Besides, the GI50 in the experiment with SN12C and in the experiment with TK-10 was > 100 µM (inactive) throughout.
Take `Cc1cc(NS(=O)(=O)c2ccc(Nc3c4ccccc4nc4c(C(=O)Nc5ccc(S(=O)(=O)N=C(N)N)cc5)cccc34)cc2)no1`: the GI50 is > 100 µM (inactive) in the experiment with ACHN; > 100 µM (inactive) in the experiment with CAKI-1; > 100 µM (inactive) in the experiment on COLO 205; over 100 µM with HCT-15; > 100 µM (inactive) in the experiment with IGROV-1; > 100 µM (inactive) in the experiment on LOX IMVI. Further, the GI50 with NCI-H460, in the experiment on NCI-H522, with OVCAR-8, in the experiment on SF-539, in the experiment on SK-MEL-28 and with SK-OV-3 was > 100 µM (inactive) each time. The GI50 in the experiment on SN12C and in the experiment on TK-10 was > 100 µM (inactive) each time.
Regarding `COc1ccccc1NC(=O)C1=C(C)NC(C)=C(C(=O)Nc2ccccc2OC)C1c1cccc2c1OCO2`, the GI50 was 58.9 µM (inactive) in the experiment on ACHN; > 100 µM (inactive) with CAKI-1; > 100 µM (inactive) in the experiment on COLO 205; over 100 µM with HCT-15; 41.2 µM (inactive) in the experiment with HL-60; > 100 µM (inactive) in the experiment with IGROV-1. The GI50 was > 100 µM (inactive) with LOX IMVI; > 100 µM (inactive) in the experiment with NCI-H226; > 100 µM (inactive) in the experiment with NCI-H460; > 100 µM (inactive) in the experiment on OVCAR-8; 21.4 µM (inactive) in the experiment on SF-539; > 100 µM (inactive) in the experiment with SK-MEL-28. For the same compound, the GI50 in the experiment with SK-OV-3, in the experiment with SN12C and in the experiment with TK-10 was > 100 µM (inactive) throughout.
With `O=C1Nc2cccc3ncn(c23)C2=C1CCCC2`, the GI50 in the experiment with ACHN is > 100 µM (inactive); with COLO 205 it was > 100 µM (inactive); in the experiment on HCT-15, over 100 µM; in the experiment on HL-60, > 100 µM (inactive); in the experiment on IGROV-1, > 100 µM (inactive); in the experiment with LOX IMVI, > 100 µM (inactive). Besides, the GI50 was > 100 µM (inactive) with NCI-H460; > 100 µM (inactive) in the experiment with NCI-H522; > 100 µM (inactive) with OVCAR-8; > 100 µM (inactive) in the experiment on SF-539; > 100 µM (inactive) with SK-MEL-28; 96.2 µM (inactive) in the experiment on SK-OV-3. Also, the GI50 in the experiment on SN12C and in the experiment with TK-10 was > 100 µM (inactive) each time.
For `CCC1(Br)C(=O)NC(=O)N(C2CC(O)C(CO)O2)C1N=[N+]=[N-]` (stereo not given), the GI50 in the experiment with ACHN, with CAKI-1, in the experiment on COLO 205, in the experiment with HL-60, in the experiment on IGROV-1 and in the experiment on LOX IMVI was > 100 µM (inactive) in each case. The GI50 in the experiment with NCI-H460 was > 100 µM (inactive); with NCI-H522 it was 94.4 µM (inactive); with OVCAR-8, > 100 µM (inactive); in the experiment on SF-539, > 100 µM (inactive); in the experiment on SK-MEL-28, > 100 µM (inactive); in the experiment with SK-OV-3 it was > 100 µM (inactive). Further, the GI50 in the experiment with SN12C and in the experiment on TK-10 was > 100 µM (inactive) in each case.
As for `CC[P+]1(CC)CCCC1`, the GI50 was > 100 µM (inactive) with ACHN; > 100 µM (inactive) in the experiment on CAKI-1; > 100 µM (inactive) with COLO 205; over 100 µM with HCT-15; > 100 µM (inactive) in the experiment on IGROV-1; > 100 µM (inactive) in the experiment with LOX IMVI. In addition, the GI50 in the experiment on NCI-H460, in the experiment on OVCAR-8, in the experiment with SF-539, with SK-MEL-28, with SK-OV-3 and in the experiment with SN12C was > 100 µM (inactive) each time. Moreover, in the experiment with TK-10, the GI50 is > 100 µM (inactive).
For the compound `NC(=O)C(=Cc1ccc(C(O)P(=O)(O)O)cc1)C(N)=O` (stereo not given), the GI50 with ACHN was > 100 µM (inactive); in the experiment on CAKI-1, > 100 µM (inactive); with COLO 205 it was > 100 µM (inactive); in the experiment on HCT-15 it was over 100 µM; in the experiment with IGROV-1 it was > 100 µM (inactive); in the experiment with LOX IMVI, > 100 µM (inactive). Further, the GI50 in the experiment on NCI-H460, in the experiment with NCI-H522, with OVCAR-8, in the experiment with SF-539, in the experiment on SK-MEL-28 and in the experiment on SK-OV-3 was > 100 µM (inactive) each time. The GI50 in the experiment with SN12C and in the experiment with TK-10 was > 100 µM (inactive) each time.
`C[C@@H](C1CCC2C3C(=CC(=O)[C@@]21C)[C@H](C)[C@]1(CCC(=O)O1)C1OC31)[C@H]1C[C@]2(C)O[C@@](C)(O1)OC2(C)C` (stereo not given in full): the GI50 with ACHN was > 100 µM (inactive); in the experiment on CAKI-1 it was > 100 µM (inactive); in the experiment on COLO 205, > 100 µM (inactive); with HCT-15, over 100 µM; with HL-60, > 100 µM (inactive); in the experiment with IGROV-1, > 100 µM (inactive). In addition, the GI50 in the experiment with LOX IMVI, with NCI-H460, in the experiment on NCI-H522, in the experiment on OVCAR-8, with SF-539 and with SK-MEL-28 was > 100 µM (inactive) throughout. The GI50 in the experiment on SK-OV-3, in the experiment with SN12C and in the experiment on TK-10 was > 100 µM (inactive) in each case.
With `C/N=C(\S)N/N=C/C(C)=N/N/C(S)=N/C`, the GI50 is > 100 µM (inactive) with ACHN; > 100 µM (inactive) in the experiment with COLO 205; over 100 µM in the experiment with HCT-15; > 100 µM (inactive) with LOX IMVI; > 100 µM (inactive) in the experiment with NCI-H460; > 100 µM (inactive) with NCI-H522. Further, the GI50 with SF-539, in the experiment on SK-MEL-28, with SK-OV-3, in the experiment with SN12C and with TK-10 was > 100 µM (inactive) throughout.
